According to US11084814B2, “Pyrido[3, 4-d]pyrimidine derivative and pharmaceutically acceptable salt thereof” (Teijin Pharma Limited, priority 2016, dated 2021):
pIC50: −log10 of the molar value.

Columns and labels:
CDK2/cyclin A2 = molecular target: T1, CDK2/cyclin A2 (Homo sapiens, UniProt P24941); experiment: Human CDK2/cyclin A2 inhibitory activity (QS S Assist CDK2/Cyclin A2_FP Kit, IMAP fluorescent polarization); assay type: biochemical; conditions: read-out: CDK2 Activity symbol
T1 construct: purchased Carna Biosciences, Inc. QS S Assist CDK2/Cyclin A2_FP Kit
Method in brief: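 Kit CDK2/cyclin A2 (2.5 ng/well) was reacted with kit ATP/substrate/metal in 20 mM HEPES pH 7.4, 0.01% Tween 20 and 2 mM DTT for 60 min at room temperature. IMAP binding reagent was added for 30 min, then fluorescence polarization was read at 485/535 nm. IC50 came from dose-response fitting of percent inhibition.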

CDK4/cyclin D3 = molecular target: T2, CDK4/cyclin D3 (Homo sapiens, UniProt P11802); experiment: Human CDK4/cyclin D3 inhibitory activity (QS S Assist CDK4/Cyclin D3_FP Kit, IMAP fluorescent polarization); assay type: biochemical; conditions: read-out: CDK4 Activity symbol
T2 construct: purchased Carna Biosciences, Inc. QS S Assist CDK4/Cyclin D3_FP Kit
Method in brief: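 Kinase reactions used kit CDK4/cyclin D3 at 12.5–25 ng/well with the kit ATP/substrate/metal mix in 20 mM HEPES (pH 7.4), 0.01% Tween20 and 2 mM DTT, run 45 min at room temperature. Phosphorylation was detected by IMAP fluorescence polarization (ex 485/em 535 nm) after 30 min binding in the dark. IC50 was fitted from percent inhibition against DMSO controls with and without enzyme.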

T2 sequence (P11802 whole entry): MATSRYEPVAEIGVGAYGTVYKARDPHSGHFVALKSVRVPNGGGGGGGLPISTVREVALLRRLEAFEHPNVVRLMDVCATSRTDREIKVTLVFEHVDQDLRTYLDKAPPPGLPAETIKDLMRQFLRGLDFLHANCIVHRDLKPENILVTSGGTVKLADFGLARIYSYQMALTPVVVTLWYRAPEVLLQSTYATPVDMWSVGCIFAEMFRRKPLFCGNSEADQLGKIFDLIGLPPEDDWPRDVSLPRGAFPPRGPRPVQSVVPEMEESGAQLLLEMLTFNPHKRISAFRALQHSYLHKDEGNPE
T2 sequence (P30281 whole entry partner): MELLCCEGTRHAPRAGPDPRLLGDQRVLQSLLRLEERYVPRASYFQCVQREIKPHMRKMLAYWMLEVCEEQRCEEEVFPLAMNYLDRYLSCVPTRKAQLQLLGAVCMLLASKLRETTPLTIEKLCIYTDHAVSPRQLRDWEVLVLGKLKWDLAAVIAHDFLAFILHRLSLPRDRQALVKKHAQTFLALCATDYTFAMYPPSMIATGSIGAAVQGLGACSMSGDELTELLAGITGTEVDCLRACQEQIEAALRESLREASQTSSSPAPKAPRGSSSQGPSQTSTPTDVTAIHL

| pIC50 (CDK2/cyclin A2) | pIC50 (CDK4/cyclin D3) | SMILES |
| --- | --- | --- |
| ≤ 7.00 | > 8.00 | C[C@@H](O)c1cc2cnc(Nc3ccc(O[C@H]4CCCNC4)cn3)nc2c(N2CCC[C@H](F)C2)n1 [Compound 251] |
| ≤ 7.00 | 7.00 to 8.00 | C[C@@H](O)c1cc2cnc(Nc3ccc(CN4CCN(C)CC4)cn3)nc2c(N2CC(F)(F)C2)n1 [Compound 133] |
| ≤ 7.00 | > 8.00 | CC(O)c1cc2cnc(Nc3ccc(N4CCNCC4)cn3)nc2c(N2CCCCC2)n1 (stereo not shown) [Compound 24] |
| ≤ 7.00 | > 8.00 | CC(O)c1cc2cnc(Nc3ccc(CN4CCN(C)CC4)cn3)nc2c(N2CC3CCC(C2)O3)n1 (stereo not shown) [Compound 321] |
| 7.00 to 8.00 | > 8.00 | Cc1nc(Nc2ncc3cc([C@@H](C)O)nc(N4CCCCC4)c3n2)ccc1N1CCCNCC1=O [Compound 305] |
| ≤ 7.00 | > 8.00 | CCN1CCN(C(=O)c2ccc(Nc3ncc4cc([C@@H](C)O)nc(N5CCCCC5)c4n3)nc2)CC1 [Compound 317] |
| ≤ 7.00 | 7.00 to 8.00 | CC(C)(O)c1cc2cnc(Nc3ccc(N4CCNCC4)cn3)nc2c(N2CCOCC2)n1 [Compound 37] |
| ≤ 7.00 | > 8.00 | C[C@@H](O)c1cc2cnc(Nc3ccc(CN4CCN(C)CC4)cn3)nc2c(N2CCCCCC2)n1 [Compound 158] |
| ≤ 7.00 | 7.00 to 8.00 | CCC(O)c1cc2cnc(Nc3ccc(N4CCNCC4)cn3)nc2c(N2CCOCC2)n1 (stereo not shown) [Compound 34] |
| ≤ 7.00 | 7.00 to 8.00 | C[C@@H](O)c1cc2cnc(Nc3ccc4c(n3)CCN([C@H]3CC[C@@H](O)CC3)C4)nc2c(N2CCCCC2)n1 [Compound 284] |
| ≤ 7.00 | > 8.00 | C[C@@H](O)c1cc2cnc(Nc3ccc(CN4CCN(C)CC4)cn3)nc2c(N2CCOC[C@@H]2C)n1 [Compound 290] |
| 7.00 to 8.00 | > 8.00 | CC(O)c1cc2cnc(Nc3ccc(N4CCNCC4=O)cn3)nc2c(N2CCCC2C)n1 (stereo not shown) [Compound 302] |
| ≤ 7.00 | 7.00 to 8.00 | C[C@@H](O)c1cc2cnc(Nc3ccc(N4CCN(C)CC4=O)cn3)nc2c(N2CCOCC2)n1 [Compound 74] |
| ≤ 7.00 | > 8.00 | C[C@@H](O)c1cc2cnc(Nc3ccc4c(n3)CCN(C(=O)C3CCN(CCO)CC3)C4)nc2c(N2CCCCC2)n1 [Compound 148] |
| ≤ 7.00 | > 8.00 | C[C@@H](O)c1cc2cnc(Nc3ccc(CN4CCN(CCO)CC4)cn3)nc2c(N2CC3CC3C2)n1 (stereo partly shown) [Compound 104] |
| ≤ 7.00 | 7.00 to 8.00 | C[C@@H](O)c1cc2cnc(Nc3ccc(N4CCNCC4=O)cn3)nc2c(N2CCC2)n1 [Compound 50] |
| ≤ 7.00 | > 8.00 | C[C@@H](O)c1cc2cnc(Nc3ccc(CN4CCN(C)CC4)cn3)nc2c(N2CCC(C)(C)C2)n1 [Compound 142] |
| ≤ 7.00 | > 8.00 | C[C@@H](O)c1cc2cnc(Nc3ccc4c(n3)CCN(C3CN(C)C3)C4)nc2c(N2CCC(C#N)CC2)n1 [Compound 279] |
| ≤ 7.00 | > 8.00 | CC(O)c1cc2cnc(Nc3ccc(CN4CCN(C)CC4)cn3)nc2c(N2CC3CC3C2)n1 (stereo not shown) [Compound 157] |
| ≤ 7.00 | > 8.00 | CCC(O)c1cc2cnc(Nc3ccc(CN4CCN(C)CC4)cn3)nc2c(N2CCCCC2)n1 (stereo not shown) [Compound 146] |
| ≤ 7.00 | > 8.00 | CO[C@H](C)c1cc2cnc(Nc3ccc(CN4CCNCC4)cn3)nc2c(N2CCCCC2)n1 [Compound 119] |

Second part, the molecule before the results:

| SMILES | pIC50 (CDK2/cyclin A2) | pIC50 (CDK4/cyclin D3) |
| --- | --- | --- |
| C[C@@H](O)c1cc2cnc(Nc3ccc(CN4CCC(C#N)CC4)cn3)nc2c(N2CCCCC2)n1 [Compound 326] | ≤ 7.00 | > 8.00 |
| CC[C@@H](O)c1cc2cnc(Nc3ccc(CN4CCN(CCO)CC4)cn3)nc2c(N2CCC[C@H]2C)n1 [Compound 247] | ≤ 7.00 | > 8.00 |
| C[C@@H](O)c1cc2cnc(Nc3ccc(CN4CCN(C)CC4)cn3)nc2c(N2CCCOCC2)n1 [Compound 177] | ≤ 7.00 | > 8.00 |
| C[C@@H](O)c1cc2cnc(Nc3ccc(N4CCNCC4)nn3)nc2c(N2CCCC(C(=O)O)C2)n1 (stereo partly shown) [Compound 40] | ≤ 7.00 | > 8.00 |
| O=C1CNCCN1c1ccc(Nc2ncc3cc(CCO)nc(N4CCCCC4)c3n2)nc1 [Compound 93] | ≤ 7.00 | > 8.00 |
| C[C@@H](O)c1cc2cnc(Nc3ccc(N4CC5(C4)CN(C4COC4)C5)nn3)nc2c(N2CCCCC2)n1 [Compound 324] | ≤ 7.00 | > 8.00 |
| c1cc(N2CCNCC2)nnc1Nc1ncc2cc(C3COC3)nc(N3CCCCC3)c2n1 [Compound 277] | ≤ 7.00 | 7.00 to 8.00 |
| Cc1nc(Nc2ncc3cc([C@@H](C)O)nc(N4CCCCC4)c3n2)ccc1N1CCN(C2CN(C)C2)CC1 [Compound 334] | ≤ 7.00 | > 8.00 |
| C[C@@H](O)c1cc2cnc(Nc3ccc4c(n3)CCN(C(=O)[C@@H]3CCCN3C)C4)nc2c(N2C3CCC2CC3)n1 [Compound 223] | ≤ 7.00 | > 8.00 |
| C[C@@H](O)c1cc2cnc(Nc3ccc(CN4CCN(C)CC4)cn3)nc2c(N2C3CCC2CC3)n1 [Compound 143] | ≤ 7.00 | > 8.00 |
| C[C@@H](O)c1cc2cnc(Nc3ccc(CN4CCN(C)CC4)cn3)nc2c(N2CCOCC2)n1 [Compound 145] | ≤ 7.00 | 7.00 to 8.00 |
| C[C@@H](O)c1cc2cnc(Nc3ccc4c(n3)CCN(C(=O)[C@@H]3CCCCN3C)C4)nc2c(N2C3CCC2CC3)n1 [Compound 237] | ≤ 7.00 | > 8.00 |
| C[C@@H](O)c1cc2cnc(Nc3ccc(N4CCNCC4=O)cn3)nc2c(N2CCC(F)CC2)n1 [Compound 90] | ≤ 7.00 | > 8.00 |
| C[C@@H](O)c1cc2cnc(Nc3ccc(N4CCNCC4)nn3)nc2c(N2CCC(C#N)CC2)n1 [Compound 273] | ≤ 7.00 | > 8.00 |
| C[C@@H](O)c1cc2cnc(Nc3ccc4c(n3)CCN(C(=O)Cc3cccnc3)C4)nc2c(N2CCCCC2)n1 [Compound 330] | ≤ 7.00 | 7.00 to 8.00 |
| C[C@@H](O)c1cc2cnc(Nc3ccc(OC4CCNCC4)cn3)nc2c(N2C3CCC2CC3)n1 [Compound 220] | ≤ 7.00 | > 8.00 |
| C[C@H](O)Cc1cc2cnc(Nc3ccc(N4CCNCC4=O)cn3)nc2c(N2CCCCC2)n1 [Compound 203] | ≤ 7.00 | > 8.00 |
| Cc1nc(Nc2ncc3cc([C@@H](C)O)nc(N4CCCCC4)c3n2)ccc1N1CCNCC1 [Compound 87] | ≤ 7.00 | > 8.00 |

| SMILES | pIC50 (CDK2/cyclin A2) | pIC50 (CDK4/cyclin D3) |
| --- | --- | --- |
| CC(O)c1cc2cnc(Nc3ccc(CN4CCN(CCO)CC4)cn3)nc2c(N2CCCC2C)n1 (stereo not shown) [Compound 83] | 7.00 to 8.00 | > 8.00 |
| C[C@H](O)CN1CCN(Cc2ccc(Nc3ncc4cc([C@@H](C)O)nc(N5CCCCC5)c4n3)nc2)CC1 [Compound 183, (S)-1-(4-((6-((6-((R)-1-hydroxyethyl)-8-(piperidin-1-yl)pyrido[3,4-d]pyrimidin-2-yl)amino)pyridin-3-yl)methyl)piperazin-1-yl)propan-2-ol] | ≤ 7.00 | > 8.00 |
| OCCN1CCN(Cc2ccc(Nc3ncc4cc(C(F)F)nc(N5CCCCC5)c4n3)nc2)CC1 [Compound 128] | ≤ 7.00 | > 8.00 |
| Cc1nc(Nc2ncc3cc([C@@H](C)O)nc(N4CCOC[C@@H]4C)c3n2)ccc1N1CCNCC1 [Compound 296] | ≤ 7.00 | > 8.00 |
| O=C1CNCCN1c1ccc(Nc2ncc3cc(CO)nc(N4CCCCC4)c3n2)nc1 [Compound 97] | ≤ 7.00 | > 8.00 |
| C[C@@H](O)c1cc2cnc(Nc3ccc(CN4CCN(C)[C@@H](C)C4)cn3)nc2c(N2CCCCC2)n1 [Compound 188] | ≤ 7.00 | > 8.00 |
| C[C@@H](O)c1cc2cnc(Nc3ccc(CN4CCN(CCO)CC4)cn3)nc2c(N2CCC(C#N)CC2)n1 [Compound 271] | ≤ 7.00 | > 8.00 |
| CC(O)c1cc2cnc(Nc3ccc4c(n3)CCN(C(=O)CN3CC5(COC5)C3)C4)nc2c(N2C3CCC2CC3)n1 (stereo not shown) [Compound 236] | ≤ 7.00 | > 8.00 |
| C[C@@H](O)c1cc2cnc(Nc3ccc(N4CCN(C)CC4)nn3)nc2c(N2CCC(F)CC2)n1 [Compound 124] | ≤ 7.00 | > 8.00 |
| CC(O)c1cc2cnc(Nc3ccc(CN4CCN(CCO)CC4)cn3)nc2c(N2C3CCCC2CC3)n1 (stereo not shown) [Compound 105] | ≤ 7.00 | > 8.00 |
| C[C@@H](O)c1cc2cnc(Nc3ccc4c(n3)CCN(C(=O)CN3CC(F)C3)C4)nc2c(N2C3CCC2CC3)n1 [Compound 235] | ≤ 7.00 | > 8.00 |
| C[C@@H](O)c1cc2cnc(Nc3ccc4c(n3)CCN(CCN(C)C)C4)nc2c(N2CCC(F)CC2)n1 [Compound 61] | ≤ 7.00 | > 8.00 |
| C[C@@H](O)c1cc2cnc(Nc3ccc4c(n3)CCN(C(=O)[C@H]3C[C@H](O)CN3)C4)nc2c(N2CCCCC2)n1 [Compound 212] | ≤ 7.00 | > 8.00 |
| C[C@@H](O)c1cc2cnc(Nc3ccc(CN4CCN(CCO)CC4)cn3)nc2c(N2CC[C@@H](F)C2)n1 [Compound 182] | ≤ 7.00 | > 8.00 |
| C[C@H](O)Cc1cc2cnc(Nc3ccc4c(n3)CCN(CCO)C4)nc2c(N2CCCCC2)n1 [Compound 204] | ≤ 7.00 | 7.00 to 8.00 |
| C[C@@H](O)c1cc2cnc(Nc3ccc4c(n3)CCN(C(=O)CN3CC[C@@H](O)C3)C4)nc2c(N2C3CCC2CC3)n1 [Compound 232] | ≤ 7.00 | > 8.00 |
| C[C@@H](O)c1cc2cnc(Nc3ccc(CN4CCN(C)CC4)cn3)nc2c(N2CCCC2)n1 [Compound 55] | ≤ 7.00 | > 8.00 |
